In patent US11708348B2, “Protease inhibitors for treatment of coronavirus infections” (The Scripps Research Institute, priority 2021, dated 2023):
Like-named read-outs stand apart in the source and are kept apart here.

Test system: SARS-CoV-2 strain USA-WA1/2020
Assay: microbe, parasite or virus in culture
Assay type: cell-based
Conditions: Severe acute respiratory syndrome coronavirus 2, HeLa-ACE2, 24 h, HeLa-ACE2 cells, SARS-CoV-2 infection, 24 h, read-out: EC50, uM (Hela)

CC(C)(C)NC(=O)C(=O)N1CC2(COC2)C[C@H]1C(=O)N[C@@H](C[C@@H]1CCNC1=O)C(=O)COC(F)(F)F [Compound 515, (S)-6-(2-(tert-butylamino)-2-oxoacetyl)-N-((S)-3-oxo-1-((S)-2-oxopyrrolidin-3-yl)-4-(trifluoromethoxy)butan-2-yl)-2-oxa-6-azaspiro[3.4]octane-7-carboxamide]
EC50 (given as bound): > 1 µM

CC1(C)[C@@H]2[C@@H](C(=O)N[C@@H](C[C@@H]3CCNC3=O)C(=O)COC(F)(F)F)N(C(=O)C(=O)NCC(F)F)C[C@@H]21 [Compound 516, (1R,2S,5S)-3-(2-((2,2-difluoroethyl)amino)-2-oxoacetyl)-6,6-dimethyl-N-((S)-3-oxo-1-((S)-2-oxopyrrolidin-3-yl)-4-(trifluoromethoxy)butan-2-yl)-3-azabicyclo-[3.1.0]hexane-2-carboxamide]
EC50: 0.05 to 0.2 µM

O=C(NCC(F)(F)F)C(=O)N[C@@H](CC1CC1)C(=O)N[C@@H](C[C@@H]1CCNC1=O)C(=O)COC(F)(F)F [Compound 517, N1-((S)-3-cyclopropyl-1-oxo-1-(((S)-3-oxo-1-((S)-2-oxopyrrolidin-3-yl)-4-(trifluoromethoxy)butan-2-yl)amino)propan-2-yl)-N2-(2,2,2-trifluoroethyl)oxalamide]
EC50: < 0.05 µM

CC(C)(C)NC(=O)C(=O)N1C[C@@]2(C[C@H]1C(=O)N[C@@H](C[C@@H]1CCNC1=O)C(=O)COC(F)(F)F)CC2(F)F [Compound 518, (3R,6S)-5-(2-(tert-butylamino)-2-oxoacetyl)-1,1-difluoro-N-((S)-3-oxo-1-((S)-2-oxopyrrolidin-3-yl)-4-(trifluoromethoxy)butan-2-yl)-5-azaspiro[2.4]-heptane-6-carboxamide]
EC50: 0.05 to 0.2 µM

O=C(NCC(F)F)C(=O)N1C[C@@H]2CCC[C@@H]2[C@H]1C(=O)N[C@@H](C[C@@H]1CCNC1=O)C(=O)COC(F)(F)F [Compound 519, (1S,3aR,6aS)-2-(2-((2,2-difluoroethyl)amino)-2-oxoacetyl)-N-((S)-3-oxo-1-((S)-2-oxopyrrolidin-3-yl)-4-(trifluoromethoxy)butan-2-yl)octahydrocyclo-penta[c]pyrrole-1-carboxamide]
EC50: 0.2 to 0.5 µM

CC(C)(C)NC(=O)C(=O)N1C[C@@H]2CC(F)(F)C[C@@H]2[C@H]1C(=O)N[C@@H](C[C@@H]1CCNC1=O)C(=O)COC(F)(F)F [Compound 520, (1S,3aR,6aS)-2-(2-(tert-butylamino)-2-oxoacetyl)-5,5-difluoro-N-((S)-3-oxo-1-((S)-2-oxopyrrolidin-3-yl)-4-(trifluoromethoxy)butan-2-yl)octahydrocyclo-penta[c]pyrrole-1-carboxamide]
EC50: 0.05 to 0.2 µM

CC(C)(C)NC(=O)C(=O)N1[C@@H]2C[C@@H]2C[C@H]1C(=O)N[C@@H](C[C@@H]1CCNC1=O)C(=O)COC(F)(F)F [Compound 521]
EC50: 0.2 to 0.5 µM

CC(C)(C)NC(=O)C(=O)N1CC2(CCOCC2)CC1C(=O)N[C@@H](C[C@@H]1CCNC1=O)C(=O)COC(F)(F)F (stereo partly drawn) [Compound 522, 2-(2-(tert-butylamino) -2-oxoacetyl)-N-((S)-3-oxo-1-((S)-2-oxopyrrolidin-3-yl)-4-(trifluoromethoxy)butan-2-yl)-8-oxa-2-azaspiro[4.5]decane-3-carboxamide]
EC50: 0.5 to 1 µM

O=C(NC1CC(F)(F)C1)C(=O)N1C[C@@H]2CCC[C@@H]2[C@H]1C(=O)N[C@@H](C[C@@H]1CCNC1=O)C(=O)COC(F)(F)F [Compound 523, (1S,3aR,6aS)-2-(2-((3,3-difluorocyclobutyl)-amino)-2-oxoacetyl)-N-((S)-3-oxo-1-((S)-2-oxopyrrolidin-3-yl)-4-(trifluoromethoxy)butan-2-yl)octahydrocyclo-penta[c]pyrrole-1-carboxamide]
EC50: < 0.05 µM

Cc1ccccc1NC(=O)C(=O)NC(CC1CCOCC1)C(=O)N[C@@H](C[C@@H]1CCNC1=O)C(=O)COC(F)(F)F (stereo partly drawn) [Compound 524, N1-(1-oxo-1-(((S)-3-oxo-1-((S)-2-oxopyrrolidin-3-yl)-4-(trifluoromethoxy)butan-2-yl)amino)-3-(tetrahydro-2H-pyran-4-yl)propan-2-yl)-N2-(o-tolyl)oxalamide]
EC50: < 0.05 µM

O=C(NC12CC(F)(C1)C2)C(=O)N1C[C@@H]2CCC[C@@H]2[C@H]1C(=O)N[C@@H](C[C@@H]1CCNC1=O)C(=O)COC(F)(F)F [Compound 525, (1S,3aR,6aS)-2-(2-((3-fluorobicyclo[1.1.1]-pentan-1-yl)amino)-2-oxoacetyl)-N-((S)-3-oxo-1-((S)-2-oxopyrrolidin-3-yl)-4-(trifluoromethoxy)butan-2-yl)octahydrocyclo-penta[c]pyrrole-1-carboxamide]
EC50: < 0.05 µM

CC(C)(NC(=O)C(=O)N1C[C@@H]2CCC[C@@H]2[C@H]1C(=O)N[C@@H](C[C@@H]1CCNC1=O)C(=O)COC(F)(F)F)C(F)(F)F [Compound 526, (1S,3aR,6aS)-N-((S)-3-oxo-1-((S)-2-oxopyrrolidin-3-yl)-4-(trifluoromethoxy)butan-2-yl)-2-(2-oxo-2-((1,1,1-trifluoro-2-methylpropan-2-yl)amino)acetyl)-octahydrocyclopenta[c]-pyrrole-1-carboxamide]
EC50: < 0.05 µM

Cc1ccccc1NC(=O)C(=O)N1CC2(CC2)C[C@H]1C(=O)N[C@@H](C[C@@H]1CCNC1=O)C(=O)COC(F)(F)F [Compound 527, (S)-N-((S)-3-oxo-1-((S)-2-oxopyrrolidin-3-yl)-4-(trifluoromethoxy)butan-2-yl)-5-(2-oxo-2-(o-tolylamino)acetyl)-5-azaspiro[2.4]heptane-6-carboxamide]
EC50: < 0.05 µM

CC(C)(C)C[C@H](NC(=O)C(=O)Nc1ccccc1F)C(=O)N[C@@H](C[C@@H]1CCNC1=O)C(=O)COC(F)(F)F [Compound 528, N1-((S)-4,4-dimethyl-1-oxo-1-(((S)-3-oxo-1-((S)-2-oxopyrrolidin-3-yl)-4-(trifluoromethoxy)butan-2-yl)amino)pentan-2-yl)-N2-(2-fluorophenyl)-oxalamide]
EC50: < 0.05 µM

CN(C(=O)C(=O)NC(C)(C)C)[C@H](C(=O)N[C@@H](C[C@@H]1CCNC1=O)C(=O)COC(F)(F)F)C1CCCC1 [Compound 529, N1-(tert-butyl)-N2-((S)-1-cyclopentyl-2-oxo-2-(((S)-3-oxo-1-((S)-2-oxopyrrolidin-3-yl)-4-(trifluoromethoxy)butan-2-yl)amino)ethyl)-N2-methyloxalamide]
EC50: 0.05 to 0.2 µM

O=C(Nc1ccccc1F)C(=O)N1CC2(CCOCC2)CC1C(=O)N[C@@H](C[C@@H]1CCNC1=O)C(=O)COC(F)(F)F (stereo partly drawn) [Compound 530, 2-(2-((2-fluorophenyl)amino)-2-oxoacetyl)-N-((S)-3-oxo-1-((S)-2-oxopyrrolidin-3-yl)-4-(trifluoromethoxy)butan-2-yl)-8-oxa-2-azaspiro[4.5]decane-3-carboxamide]
EC50: 0.5 to 1 µM

CC(C)(C)NC(=O)C(=O)N1CC2(CCCCC2)CC1C(=O)N[C@@H](C[C@@H]1CCNC1=O)C(=O)COC(F)(F)F (stereo partly drawn) [Compound 531, 2-(2-(tert-butylamino)-2-oxoacetyl)-N-((S)-3-oxo-1-((S)-2-oxopyrrolidin-3-yl)-4-(trifluoromethoxy)butan-2-yl)-2-azaspiro[4.5]decane-3-carboxamide]
EC50: < 0.05 µM

CC(C)(C)C[C@H](NC(=O)c1cc(C(F)F)on1)C(=O)N[C@@H](C[C@@H]1CCNC1=O)C(=O)COC(F)(F)F [Compound 532, 5-(difluoromethyl)-N-((S)-4,4-dimethyl-1-oxo-1-(((S)-3-oxo-1-((S)-2-oxopyrrolidin-3-yl)-4-(trifluoromethoxy)butan-2-yl)amino)pentan-2-yl)isoxazole-3-carboxamide]
EC50: < 0.05 µM

Cn1ccc(C(=O)N2C[C@@H]3CCC[C@@H]3[C@H]2C(=O)N[C@@H](C[C@@H]2CCNC2=O)C(=O)COC(F)(F)F)n1 [Compound 533, (1S,3aR,6aS)-2-(1-methyl-1H-pyrazole-3-carbonyl)-N-((S)-3-oxo-1-((S)-2-oxopyrrolidin-3-yl)-4-(trifluoromethoxy)butan-2-yl)octahydrocyclo-penta[c]pyrrole-1-carboxamide]
EC50: 0.5 to 1 µM

Cn1ccc(NC(=O)C(=O)N2C[C@@H]3CCC[C@@H]3[C@H]2C(=O)N[C@@H](C[C@@H]2CCNC2=O)C(=O)COC(F)(F)F)n1 [Compound 534, (1S,3aR,6aS)-2-(2-((l-methyl-1H-pyrazol-3-yl)amino)-2-oxoacetyl)-N-((S)-3-oxo-1-((S)-2-oxopyrrolidin-3-yl)-4-(trifluoromethoxy)butan-2-yl)octahydrocyclo-penta[c]pyrrole-1-carboxamide]
EC50: 0.05 to 0.2 µM

Cn1ccc(NC(=O)C(=O)N2C[C@H]3[C@@H]([C@H]2C(=O)N[C@@H](C[C@@H]2CCNC2=O)C(=O)COC(F)(F)F)C3(C)C)n1 [Compound 535, (1R,2S,5S)-6,6-dimethyl-3-(2-((l-methyl-1H-pyrazol-3-yl)amino)-2-oxoacetyl)-N-((S)-3-oxo-1-((S)-2-oxopyrrolidin-3-yl)-4-(trifluoromethoxy)butan-2-yl)-3-azabicyclo-[3.1.0]hexane-2-carboxamide]
EC50: 0.05 to 0.2 µM

CC1(C)[C@@H]2[C@@H](C(=O)N[C@@H](C[C@@H]3CCNC3=O)C(=O)COC(F)(F)F)N(C(=O)C(=O)NC3CC(F)(F)C3)C[C@@H]21 [Compound 536, (1R,2S,5S)-3-(2-((3,3-difluorocyclo-butyl)amino)-2-oxoacetyl)-6,6-dimethyl-N-((S)-3-oxo-1-((S)-2-oxopyrrolidin-3-yl)-4-(trifluoromethoxy)butan-2-yl)-3-azabicyclo-[3.1.0]hexane-2-carboxamide]
EC50: 0.05 to 0.2 µM

CO[C@@H]1C[C@@H](C(=O)N[C@@H](C[C@@H]2CCNC2=O)C(=O)COC(F)(F)F)N(C(=O)C(=O)NC(C)(C)C)C1 [Compound 537, (2S,4R)-1-(2-(tert-butylamino)-2-oxoacetyl)-4-methoxy-N-((S)-3-oxo-1-((S)-2-oxopyrrolidin-3-yl)-4-(trifluoromethoxy)butan-2-yl)pyrrolidine-2-carboxamide]
EC50 (given as bound): > 1 µM
